Measurements: patent US20240108725A1, “METHOD FOR TREATING CANCER AND SYSTEM FOR SAME” (OTSUKA MEDICAL DEVICES CO., LTD, priority 2020, published 2024)
Where a name gives a salt, the structure may show the parent alone.

Experiments:
[1] = subcutaneous administration; had been reported; cited from earlier work
[2] = system: C6 cells; assay: Rate of dead cells in PDT-treated or anti-cancer agent-treated C6 cells (Annexin V/PI), Example 2; type: cell-based, rat; conditions: C6 cells cultured 48 hours with MTX 20 μg/mL, DOX 75 μg/mL or EPI 62.5 μg/mL
Method: C6 cells were cultured in 2.5% FBS/F-12K medium supplemented with 5-ALA to a final concentration of 1 mM in a 5% CO2 incubator at 37° C. for 24 hours. After the culture, the cells were removed with 0.25% trypsin-EDTA solution, and the collected cells were adjusted to 2×10^7 cells/mL with PBS. The cell suspension thus prepared was injected into a Tygon tube (inner diameter: 0.79 mm), wrapped around a light irradiator (Otsuka Electronics Co., Ltd.), and irradiated with light having a wavelength of 630 nm and an irradiation energy density of 7.5 J/cm^2 (illuminance of 124.5 mW/cm^2 for 1 minute). The treated cells were pooled and the irradiation was repeated until the required dose was obtained. The irradiated cells were divided into three equal parts, and one was administered to F344 rats (8 week-old at the start of study, male, Charles River Laboratories Japan Inc.) at 0.5 mL (1×10^7 cells) per animal from the tail vein under isoflurane anesthesia (PDT iv group, 3 animals). Another one was centrifuged to remove its culture supernatant and adjusted to 2×10^7 cells/mL with PBS, and the cell suspension thus prepared was administered at 0.5 mL (1×10^7 cells) per animal from the tail vein in the same manner as the PDT iv group (PDT-cell iv group, 3 animals). The cells of the remaining one of the three equal parts were suspended in 2.5% FBS/F-12K medium and cultured in a 5% CO2 incubator at 37° C. for 24 hours, and then collected and adjusted to 2×10^7 cells/mL with PBS, and the cell suspension thus prepared was administered at 0.5 mL (1×10^7 cells) per animal from the tail vein in the same manner as other groups (PDT/24 h-cell iv group, 3 animals). Intravenous administration of these PDT-treated cells was performed a total of 3 times (Day−15, −8, −1). […]
The PDT-treated or anti-cancer agent-treated C6 cells were stained with FITC-labeled Annexin V and PI by using the FITC Annexin V Apoptosis Detection Kit I. After that, the rate of dead cells was analyzed with a flow cytometer.

[3] = system: C6 cells; assay: Tumor volume after subcutaneous transplantation of C6 cells in rats given PDT-treated or anti-cancer agent-treated cells intravenously, Example 2; type: in vivo, rat; conditions: intravenous administration of treated C6 cells to rats
Method: C6 cells were cultured in 2.5% FBS/F-12K medium supplemented with 5-ALA to a final concentration of 1 mM in a 5% CO2 incubator at 37° C. for 24 hours. After the culture, the cells were removed with 0.25% trypsin-EDTA solution, and the collected cells were adjusted to 2×10^7 cells/mL with PBS. The cell suspension thus prepared was injected into a Tygon tube (inner diameter: 0.79 mm), wrapped around a light irradiator (Otsuka Electronics Co., Ltd.), and irradiated with light having a wavelength of 630 nm and an irradiation energy density of 7.5 J/cm^2 (illuminance of 124.5 mW/cm^2 for 1 minute). The treated cells were pooled and the irradiation was repeated until the required dose was obtained. The irradiated cells were divided into three equal parts, and one was administered to F344 rats (8 week-old at the start of study, male, Charles River Laboratories Japan Inc.) at 0.5 mL (1×10^7 cells) per animal from the tail vein under isoflurane anesthesia (PDT iv group, 3 animals). […]
On the 4th, 6th, 8th and 10th days after preparation of the cancer-bearing rats (Day 4, 6, 8, 10), the major axis and the minor axis of the tumor were measured by using a caliper, and the tumor volume was calculated according to the following formula. […]

Row | SMILES | immunostimulatory effects [1] | living cells (Annexin V−/PI−) [2] [%] | antitumor immunity [3]
1 | COc1cccc2c1C(=O)c1c(O)c3c(c(O)c1C2=O)C[C@@](O)(C(=O)CO)C[C@@H]3O[C@H]1C[C@H](N)[C@H](O)[C@H](C)O1 [DOX, doxorubicin hydrochloride] | immunostimulatory effects | 5 | not induced
2 | COc1cccc2c1C(=O)c1c(O)c3c(c(O)c1C2=O)C[C@@](O)(C(=O)CO)C[C@@H]3O[C@H]1C[C@H](N)[C@@H](O)[C@H](C)O1 [EPI, epirubicin hydrochloride] |  | 5 | 
3 | O=C1c2c(O)ccc(O)c2C(=O)c2c(NCCNCCO)ccc(NCCNCCO)c21 [MTX, mitoxantrone dihydrochloride] |  | 1 | 
